Assay results from EP1015459B9 (ABBOTT LABORATORIES, priority 1997, dated 1999).

Test system: human mixed lymphocyte reaction (MLR)
Assay: human mixed lymphocyte reaction (MLR) assay
Type: cell-based
Conditions: immunosuppressant activity, read-out: Human MLR IC50 ± S.E.M.
Procedure: The immunosuppressant activity of the compounds of the present invention was determined using the human mixed lymphocyte reaction (MLR) assay described by Kino, T. et al. in Transplantation Proceedings, XIX(5):36-39. Suppl. 6 (1987). […]

**Q.** `CO[C@H]1C[C@@H]2CC[C@@H](C)[C@@](O)(O2)C(=O)C(=O)N2CCCC[C@H]2C(=O)O[C@H]([C@H](C)C[C@@H]2CC[C@@H](O)[C@H](OC)C2)CC(=O)[C@H](C)/C=C(\C)[C@@H](O)[C@@H](OC)C(=O)[C@H](C)C[C@H](C)/C=C/C=C/C=C/1C` [Rapamycin, reference compound] was tested. Which IC50 did it give?
**A.** The IC50 was 0.91 ± 0.36 nM.
